The values below come from patent US20090062255A1, “TUMOR-TARGETING EVALUATION METHODOLOGY AND COMPOUNDS RELATED THERETO” (THALLION PHARMACEUTICALS INC., priority 2007, published 2009).

A short description of one data set: in vivo. To be noted: CD-1 nu/nu, mouse, iv.
Data set [1] can be described thus: ECO-4601 concentrations in plasma and tissues, rat C6 orthotopic brain tumors. It is filed as in vivo. To be noted: individual rats. Here is the method: Rat C6 glioma cells were purchased from the American Type Culture Collection (Manessa, Va.) and grown in Dulbecco's modified Eagle's medium (DMEM) supplemented with 10% FBS, 125 U/mL penicillin G, 125 μg/mL streptomycin sulfate, and 2.2 μg/mL amphotericin B (Fungizone). All culture reagents were obtained from Gibco BRL (Invitrogen Burlington, ON, Canada). Cultures were grown in monolayers and maintained at 37° C. in a humidified atmosphere of 5% CO2. Upon reaching confluency, spheroids were prepared using the hanging drop method previously described by Del Duca et al. ((2004) J. Neurooncol 67, p 295). Briefly, 20 μl drops of DMEM containing 15,000 cells each were suspended from the lids of culture dishes and the resulting aggregates were transferred to culture dishes base-coated with agar after 72 hours. The resulting spheroids were adequate for in vivo implantation after 48 hours of incubation on agar.
Male, Sprague-Dawley rats (250-300 g) (Charles River Canada, St Constant, QC) were anesthetized with 50 mg/kg ketamine and 10 mg/kg xylazine. The right cortical surface in the parietal-occipital region was exposed by craniectomy using a high-powered drill (DREMEL, USA) and the underlying dura and its vessels were carefully removed under a surgical microscope. A piece of the cortex was removed to expose the underlying white matter and a single speroid containing rat C6 tumor cells was placed into the surgical defect. The craniectomy was covered with bone wax (Ethicon, Peterborough, Canada) and the overlying skin sutured. Following recovery from anesthesia, the animals were fed and had access to water ad libitum.
Following completion of in vivo studies, animals were sacrificed by anesthetic overdose and decapitated. Brain, tumor, and liver were snap-frozen in liquid nitrogen and stored frozen (−70° C.±10° C.). For blood samples, each blood sample was collected into a K2-EDTA tube and kept on wet ice for a maximum of 30 minutes. Blood samples were centrifuged under refrigeration (2 to 8° C.) for 10 minutes at 1,500 g (RCF). A volume of 25 μL of aqueous 4% w/v L-ascorbic acid was added to a volume of 225 μL of rat plasma in a clean tube, and the samples were thoroughly mixed by inversion. A volume of 125 uL of the resulting mixture was transferred to a separate tube for bioanalysis, while the remaining mixture was maintained as a backup, and both the bioanalysis and back-up portions were frozen on dry ice and stored frozen (−70° C.±10° C.).
Rat plasma (50 μL) was mixed with 500 μL of acetone containing 100 ng/mL of the internal standard (Compound 2). The mixture was vortexed for 20 seconds, incubated 10 min at RT and centrifuged at 12,000×g for 10 minutes. The supernatants were transferred into HPLC injection vials and 20 μL were analyzed by tandem liquid chromatography/mass spectrometry. The chromatography was achieved on a Luna C18 column (30×4.6 mm, 5 μm particles; Phenomenex, Torrance, Calif.) with a mobile phase consisting of 100% methanol: 0.5% formic acid in water (85:15) at a flow rate of 1 mL/min. Flow was split 1:10 prior to introduction into the ESI source. The nebulization was assisted by and octagonal jet stream of nitrogen heated at […] and set at a flow of 4 L/min. The ion source voltage (ISV) was at 4000 V in positive mode, declustering potential (OR-QO) was set to 20 V, and the collision energy (Elab) was set to 25 V. The mass transition monitered for ECO-4601 and the internal standard were m/z 463→271 and 477→273, respectively. […]

For data set [2], the target named is T1, peripheral benzodiazepine receptor (PBR) (Rattus norvegicus, UniProt P16257).
T1 construct: CBR and PBR were obtained from rat brain and heart membrane-fractions, respectively; from tissue; host or cells: Wistar rat heart membranes
The data set can be described thus: In-house PBR binding assay ([3H]PK11195, rat heart mitochondrial membranes).

Data set [3] in a line: Plasma and tissue drug levels after IV bolus and CIV infusion, rat C6 orthotopic brain tumors. The data set is classed as in vivo. Here is the method:
14 days post-tumor implantation, rats received a bolus IV administration of compound 1 (30 mg/kg; 1.5 mL at 0.5 mL per min) followed by continuous IV infusion (5 mg/kg/hour; 0.7 mL/hour) over 3 hours. The animals were then sacrificed by anesthetic overdose and blood was collected by heart puncture. Brain, tumor and liver were snap-frozen in liquid nitrogen and stored at −80° C. until analysis. Blood samples was collected into K2-EDTA tubes and kept on ice for a maximum of 30 min. Samples were then centrifuged at 4° C. and 1500 g (RCF). A volume of 225 μL of rat plasma was added to clean tubes containing 25 μL of aqueous 4% w/v L-ascorbic acid and samples were mixed and stored at −80° C. until analysis.
Binding potential (B.P.) data and Compound 1 plasma levels and tissue levels for each of the seven rats included in the study are presented in Table 23 below and summarized in FIG. 7.

Data set [4] has as its system C6 glioblastoma cell line. In words: MTT cytotoxicity, C6 cell line. The conditions noted are these: 96 h, Rat. It is filed as cell-based. Here is the method:
(§1) The cytotoxic activity of Compound 1 was further evaluated using a panel of brain tumor cell lines. This study was performed in collaboration with INSERM (Grenoble, France). Tumor cells (5,000 to 10,000 cells per well depending on their doubling time) were plated in 96-well flat-bottom plates and incubated for 24 hours before treatment. Tumor cells were then incubated for 96 hours with seven different concentrations of Compound 1: […], 0.01, and 0.001 μM. The in vitro cytotoxic activity was determined by a standard MTT assay.

In a further data set the test system is GTP-bound Ras. In words: Ras activation pull-down assay (GST-Raf-RBD) in MCF-7 cells. The data set is classed as cell-based, human. To be noted: 6 h treatment, EGF 5 min. Here is the method:
Following EGF induction, Ras is activated by a nucleotide exchange reaction that removes GDP and replaces it with GTP. Physiological levels of total cellular GTP-bound Ras can be detected with pull-down assays. MCF-7 cells were treated with increasing concentrations of ECO-4601 for 6 h and the Ras-MAPK signalling pathway was then induced with EGF. After a 5 min induction period, cells were lysed and incubated with a recombinant fusion protein that contains the isolated Ras Binding Domain of c-Raf-1 fused the gluthathione-S-transferese (GST; designated GST-Raf-RBD). The presence of Ras in the GST-Raf-RBD protein complex is resolved by western blotting. As expected, after EGF induction, an increase of Ras-GTP was observed.

For data set [5], the system named is GL26 glioblastoma cell line. The data set can be described thus: MTT cytotoxicity, GL26 cell line. It is filed as cell-based. The conditions noted are these: 96 h, Human. Here is the method:
as §1

The mark [6] stands for this setting: individual rats, IV bolus 30 mg/kg then CIV 5 mg/kg/hour over 3 hours, listed as ECO-4601.

SMILES strings stand for the structures. “And” between values parts separate entries of the source, which are not always exact repeats. Identical values can stand only once. Like-named read-outs stand apart in the source and are kept apart here. A value given as a limit tells only on which side of the number the result lay.

In the case of `CC(C)=CCC/C(C)=C/CC/C(C)=C/CN1C(=O)c2cccc(O)c2N(C)c2c(O)cc(O)cc21` [Compound 2, 10-farnesyl-4,6,8-trihydroxy-5-methyl-5,10-dihydro-dibenzo[b,e][1,4]diazepin-11-one], the MTD in “in vivo” is > 100 mg/kg.

On to `CC(C)=CCC/C(C)=C/CC/C(C)=C/CN1C(=O)c2cccc(O)c2Nc2c(O)cc(O)cc21` [Compound 1, 10-farnesyl-4,6,8-trihydroxy-5,10-dihydrodibenzo[b,e][1,4]diazepin-11-one], for which, in data set [1], the “Ratio Tumor/Brain” value is 10.1 and 2.1 and 5.2 and 11.30 and 3.5; the Tumor was 2701 ng/g and 239 ng/g and 509 ng/g and 2891 ng/g and 1145 ng/g. Moreover, in data set [1] (C6 orthotopic brain tumor), the Brain was 249 ng/g and 115 ng/g and 98 ng/g and 254 ng/g and 327 ng/g; the Liver was 994 ng/g and 164 ng/g and 1083 ng/g and 2767 ng/g and 123 ng/g; the “Pasma ng/mL” value is 13,088 ng/mL and 2,657 ng/mL and 5,727 ng/mL and 10,212 ng/mL and 1,177 ng/mL. In addition, in data set [2], the 50% effective concentration (EC50) – broadly, the midpoint of the concentration-response curve – was 2800 nM and the “PBR binding (in words)” value was “bind the PBR”. Besides, in data set [2] (Ki=EC50/(1+[ligand]/Kd), [ligand]=1.6 nM, read-out: calculated Ki), the Ki (usually the dissociation constant of the complex between target and ligand, obtained from inhibition or displacement) was ~1400 nM. In addition, the IC50 (usually the concentration that inhibits the measured activity by half) in data set [2] (in-house radioligand-binding assay) came to 2700 nM. For the same compound, in data set [3] (FIG. 7), the “tumor compared to liver” value is 7 fold. In addition, in data set [3] (setting [6]), the “Brain Drug Level” value is 527 ng/g and 692 ng/g and 823 ng/g and 1265 ng/g and 941 ng/g and 503 ng/g and 596 ng/g; the “Liver Drug Level” value is 11.2 µg/g and 6.91 µg/g and 53.1 µg/g and 61.0 µg/g and 14.2 µg/g and 3.31 µg/g and 2.29 µg/g; the “Plasma Drug Level” value was 16000 ng/mL and 12000 ng/mL and 22000 ng/mL and 32000 ng/mL and 11500 ng/mL and 4200 ng/mL and 4100 ng/mL; the “Tumor Drug Level” value was 234 µg/g and 8.46 µg/g and 182 µg/g and 273 µg/g and 242 µg/g and 8.98 µg/g and 119 µg/g. In addition, the concentration at 3 h in data set [3] (rat, liver, intravenous, FIG. 7, read-out: liver level (mean)) came out at 24800 ng/g. Further, the concentration at 3 h in data set [3] (rat, plasma, intravenous, FIG. 7, read-out: plasma level (mean)) came out at 16200 ng/g. Moreover, in data set [3] (rat, tumor / plasma, intravenous, FIG. 7, read-out: tumor compared to plasma), the Kp at 3 h came out at 11. Besides, in data set [3] (rat, tumor, intravenous, FIG. 7, read-out: accumulation in the tumor (mean level)), the concentration at 3 h amounted to 176 µg/mL. The compound further returned an IC50 in data set [4] of 4.3 ± 2.3 µM. Further, the “effect on EGF-induced Ras activation (Ras-GTP)” value with GTP-bound Ras is “prevented EGF from activating Ras”. This compound also gave a half-inhibitory concentration (IC50) in data set [5] of 8.9 ± 1.1 µM.
